Measurements from paper PMC3147293 (Cell host & microbe, 2011).
pIC50: −log10 of the molar value. Entries after “also recorded” stand apart in the source; their conditions may differ. Where no end group is shown, it is not given here.

What was measured:
[1] = target: CPAF (Chlamydia trachomatis serovar D, UniProt O84866); experiment: HPLC assay of CPAF cleavage of Abz-tagged vimentin-derived peptide; format: biochemical
[2] = system: Chlamydia-infected HeLa cells; experiment: Death of infected HeLa cells by flow cytometry of PI-stained cells; format: cell-based; conditions: anti-CPAF peptide at 12 hpi, with/without 40μM Z-VAD-FMK at 3 hpi
[3] = system: recombinant CPAF; conditions: ~40 ng CPAF, 48μg GST-tagged Chlamydia proteins, 37°C, 20 min; Coomassie
[4] = system: uninfected cells; experiment: Toxicity in uninfected cells; format: cell-based; conditions: data not shown
[5] = system: proteasome; experiment: Proteasome function in uninfected cells; format: cell-based; conditions: data not shown

CPAF, sequence (O84866 276-601): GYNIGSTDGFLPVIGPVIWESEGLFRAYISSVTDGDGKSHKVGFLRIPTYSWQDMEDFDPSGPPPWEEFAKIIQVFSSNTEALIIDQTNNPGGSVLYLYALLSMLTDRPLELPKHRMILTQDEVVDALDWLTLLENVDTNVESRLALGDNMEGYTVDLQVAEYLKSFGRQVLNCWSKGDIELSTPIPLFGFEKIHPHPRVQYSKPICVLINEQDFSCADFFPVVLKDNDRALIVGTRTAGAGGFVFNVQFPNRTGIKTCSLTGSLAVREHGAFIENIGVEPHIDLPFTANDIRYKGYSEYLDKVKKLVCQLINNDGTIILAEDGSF
CPAF, sequence (O84866 24-234): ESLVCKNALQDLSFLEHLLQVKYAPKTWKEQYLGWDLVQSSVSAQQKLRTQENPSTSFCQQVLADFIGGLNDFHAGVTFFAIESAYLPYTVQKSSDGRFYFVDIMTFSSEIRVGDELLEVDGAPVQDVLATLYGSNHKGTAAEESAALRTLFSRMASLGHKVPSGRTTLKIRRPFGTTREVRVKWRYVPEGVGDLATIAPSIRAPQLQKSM

| Compound | pIC50 [1] | death of infected cells (PI staining) [2] | inhibition of cleavage of GST-tagged substrates by recombinant CPAF [3] | toxicity in uninfected cells [4] | alteration of proteasome function in uninfected cells [5] |
| --- | --- | --- | --- | --- | --- |
| CC(=O)N[C@@H](CSC(=O)[C@]1([C@@H](O)C(C)C)NC(=O)[C@H](C)[C@@H]1O)C(=O)O [Lactacystin, lactacystin, reference compound] | 5.00 | – | – | – | – |
| NFALSHFRLPLSTYKEMPYVSHWAGRRRRRRRRR [scrambled control peptide] | – | PI staining was not seen | but not a scrambled control peptide; also recorded: but not the scrambled control peptide | – | – |
| SLFYSPMVPHFWAELRNHYATSGLKRRRRRRRRR [anti-CPAF peptide] | 7.30 | – | – | did not induce any obvious toxicity | did not induce any obvious toxicity or alter proteasome function in uninfected cells |
